Experimental data reported in US20260262643A1, “HERBICIDAL BENZOXAZINES” (FMC CORPORATION, priority 2022, published 2026).
Like-named read-outs stand apart in the source and are kept apart here.

Legend:
[1] = system: goosegrass; assay: Test A postemergence; format: in vivo, Eleusine indica; details: Eleusine indica, post-emergence, 240 h; for pest or weed control at 125 g/ha: 125 g ai/ha; for pest or weed control at 500 g/ha: 500 g ai/ha
Method in brief: (§1)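 Loam/sand soil; pre-em directed soil spray at planting, post-em spray at 1–2 leaf (2–10 cm). Compound in non-phytotoxic solvent + surfactant. Greenhouse 10 d; visual injury vs untreated, 0 = no effect, 100 = complete control.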

[2] = system: sedge, umbrella; assay: Test B flooded paddy test; format: in vivo, Cyperus difformis; details: Cyperus difformis, 312 h; 250 g ai/ha, Flood, 13 days, 0 to 100 scale (0 no effect, 100 complete control); read-out: Plant response rating, Sedge, Umbrella
Method in brief: (§2)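 Compound is introduced into paddy water covering soil by 3 cm, treating plants that have reached two leaves. Pots are kept flooded at that depth under greenhouse conditions. Assessment at 13 days gives a 0–100 visual control score.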

[3] = system: galium; assay: Test A postemergence; format: in vivo, Galium aparine; details: Galium, post-emergence, 240 h; for pest or weed control at 125 g/ha: 125 g ai/ha; for pest or weed control at 500 g/ha: 500 g ai/ha
Method in brief: as §1

[4] = system: soybean; assay: Test A postemergence; format: in vivo, Glycine max; details: Glycine max, post-emergence, 240 h; for plant injury at 125 g/ha: 125 g ai/ha; for plant injury at 500 g/ha: 500 g ai/ha
Method in brief: as §1

[5] = system: ryegrass, Italian; assay: Test A postemergence; format: in vivo, Lolium multiflorum; details: Lolium multiflorum, post-emergence, 240 h; for pest or weed control at 125 g/ha: 125 g ai/ha; for pest or weed control at 500 g/ha: 500 g ai/ha
Method in brief: as §1

[6] = system: goosegrass; assay: Test A preemergence; format: in vivo, Eleusine indica; details: Eleusine indica, pre-emergence, 240 h, read-out: Plant response rating, Goosegrass; for pest or weed control at 125 g/ha: 125 g ai/ha, visual injury after 10 days, 0 to 100 scale, 0 is no effect, 100 is complete control; for pest or weed control at 500 g/ha: 500 g ai/ha, 0 to 100 scale (0 no effect, 100 complete control), 10 days
Method in brief: as §1

[7] = system: ryegrass, Italian; assay: Test A preemergence; format: in vivo, Lolium multiflorum; details: Lolium multiflorum, pre-emergence, 240 h, read-out: Plant response rating, Ryegrass, Italian; for pest or weed control at 125 g/ha: 125 g ai/ha, visual injury after 10 days, 0 to 100 scale, 0 is no effect, 100 is complete control; for pest or weed control at 500 g/ha: 500 g ai/ha, 0 to 100 scale (0 no effect, 100 complete control), 10 days
Method in brief: as §1

[8] = system: ducksalad; assay: Test B flooded paddy test; format: in vivo, Heteranthera limosa; details: Heteranthera limosa, 312 h, 250 g ai/ha, Flood, 13 days, 0 to 100 scale (0 no effect, 100 complete control); read-out: Plant response rating, Ducksalad
Method in brief: as §2

[9] = system: ragweed; assay: Test A postemergence; format: in vivo, Ambrosia artemisiifolia; details: Ambrosia artemisiifolia, post-emergence, 240 h; for pest or weed control at 125 g/ha: 125 g ai/ha; for pest or weed control at 500 g/ha: 500 g ai/ha
Method in brief: as §1

[10] = system: foxtail, giant; assay: Test A postemergence; format: in vivo, Setaria faberi; details: Setaria faberi, post-emergence, 240 h; for pest or weed control at 125 g/ha: 125 g ai/ha; for pest or weed control at 500 g/ha: 500 g ai/ha
Method in brief: as §1

[11] = system: kochia; assay: Test A preemergence; format: in vivo, Bassia scoparia; details: Bassia scoparia, pre-emergence, 240 h, read-out: Plant response rating, Kochia; for pest or weed control at 125 g/ha: 125 g ai/ha, visual injury after 10 days, 0 to 100 scale, 0 is no effect, 100 is complete control; for pest or weed control at 500 g/ha: 500 g ai/ha, 0 to 100 scale (0 no effect, 100 complete control), 10 days
Method in brief: as §1

[12] = system: corn; assay: Test A postemergence; format: in vivo, Zea mays; details: Zea mays, post-emergence, 240 h; for Corn plant response rating (crop injury, 0 = no effect, 100 = complete kill) at 500 g/ha: 500 g ai/ha
Method in brief: as §1

[13] = system: wheat; assay: Test A preemergence; format: in vivo, Triticum aestivum; details: Triticum aestivum, pre-emergence, 240 h, read-out: Plant response rating, Wheat; for plant injury at 125 g/ha: 125 g ai/ha, visual injury after 10 days, 0 to 100 scale, 0 is no effect, 100 is complete control; for plant injury at 500 g/ha: 500 g ai/ha, 0 to 100 scale (0 no effect, 100 complete control), 10 days
Method in brief: as §1

[14] = system: blackgrass; assay: Test A preemergence; format: in vivo, Alopecurus myosuroides; details: Alopecurus myosuroides, pre-emergence, 240 h, read-out: Plant response rating, Blackgrass; for pest or weed control at 125 g/ha: 125 g ai/ha, visual injury after 10 days, 0 to 100 scale, 0 is no effect, 100 is complete control; for pest or weed control at 500 g/ha: 500 g ai/ha, 0 to 100 scale (0 no effect, 100 complete control), 10 days
Method in brief: as §1

[15] = postemergence, 10 days, visual injury, 0 to 100 scale (0 no effect, 100 complete control), read-out: Plant response rating, Goosegrass
[16] = postemergence, 10 days, visual injury, 0 to 100 scale (0 no effect, 100 complete control), read-out: Plant response rating, Galium
[17] = postemergence, 10 days, visual injury, 0 to 100 scale (0 no effect, 100 complete control), read-out: Plant response rating, Soybean
[18] = postemergence, 10 days, visual injury, 0 to 100 scale (0 no effect, 100 complete control), read-out: Plant response rating, Ryegrass, Italian
[19] = postemergence, 10 days, visual injury, 0 to 100 scale (0 no effect, 100 complete control), read-out: Plant response rating, Ragweed
[20] = postemergence, 10 days, visual injury, 0 to 100 scale (0 no effect, 100 complete control), read-out: Plant response rating, Foxtail, Giant
[21] = 125 g ai/ha, postemergence, 10 days, visual injury, 0 to 100 scale (0 no effect, 100 complete control)
[22] = postemergence, 10 days, visual injury, 0 to 100 scale (0 no effect, 100 complete control)

`C#Cc1ncn(-c2cccc(C(=O)N3C[C@H](C)Oc4c(C)cccc43)c2)n1` [Compound 64, [(2S)-2,3-Dihydro-2,8-dimethyl-4H-1,4-benzoxazin-4-yl][3-(3-ethynyl-1H-1,2,4-triazol-1-yl)phenyl]methanone] was tested, and the pest or weed control at 125 g/ha [1, 15] was 10%, the pest or weed control at 500 g/ha ([1]; Postemergence, 0 to 100 scale, read-out: Plant response rating, Goosegrass) was 30% and the pest or weed control at 250 g/ha [2] was 75%. For the same compound, the pest or weed control at 125 g/ha [3, 16] was 90%, the pest or weed control at 500 g/ha ([3]; Postemergence, 0 to 100 scale, read-out: Plant response rating, Galium) was 100% and the plant injury at 125 g/ha [4, 17] was 80%. The plant injury at 500 g/ha ([4]; Postemergence, 0 to 100 scale, read-out: Plant response rating, Soybean) was 100%, the pest or weed control at 125 g/ha [5, 18] was 40% and the pest or weed control at 500 g/ha ([5]; Postemergence, 0 to 100 scale, read-out: Plant response rating, Ryegrass, Italian) was 100%. The pest or weed control at 125 g/ha [6] was 60%, the pest or weed control at 500 g/ha [6] was 100% and the pest or weed control at 125 g/ha [7] was 90%. It also gave a pest or weed control at 500 g/ha [7] of 100%, a pest or weed control at 250 g/ha [8] of 25% and a pest or weed control at 125 g/ha [9, 19] of 0%. The pest or weed control at 500 g/ha ([9]; Postemergence, 0 to 100 scale, read-out: Plant response rating, Ragweed) was 40%, the pest or weed control at 125 g/ha [10, 20] was 20% and the pest or weed control at 500 g/ha ([10]; Postemergence, 0 to 100 scale, read-out: Plant response rating, Foxtail, Giant) was 90%. The pest or weed control at 125 g/ha [11] was 80%, the pest or weed control at 500 g/ha [11] was 90% and the Corn plant response rating (crop injury, 0 = no effect, 100 = complete kill) at 125 g/ha [12, 21] was 10%. It also gave a Corn plant response rating (crop injury, 0 = no effect, 100 = complete kill) at 500 g/ha ([12]; Postemergence, 0 to 100 scale) of 80%, a plant injury at 125 g/ha [13] of 20% and a plant injury at 500 g/ha [13] of 40%. It also gave a pest or weed control at 125 g/ha [14] of 80% and a pest or weed control at 500 g/ha [14] of 90%.
For `COCc1ncn(-c2cccc(C(=O)N3C[C@H](C)Oc4c(C)cccc43)c2)n1` [Compound 101, [(2S)-2,3-Dihydro-2,8-dimethyl-4H-1,4-benzoxazin-4-yl][3-[3-(methoxymethyl)-1H-1,2,4-triazol-1-yl]phenyl]methanone], the pest or weed control at 125 g/ha ([1]; postemergence, 10 days, 0 to 100 scale (0 no effect, 100 complete control), read-out: Goosegrass plant response rating) was 50%, the pest or weed control at 500 g/ha [1, 15] was 80% and the pest or weed control at 250 g/ha [2] was 85%. The pest or weed control at 125 g/ha ([3]; postemergence, 10 days, 0 to 100 scale (0 no effect, 100 complete control), read-out: Galium plant response rating) was 50%, the pest or weed control at 500 g/ha [3, 16] was 90% and the plant injury at 125 g/ha ([4]; postemergence, 10 days, 0 to 100 scale (0 no effect, 100 complete control), read-out: Soybean plant response rating) was 70%. It also gave a plant injury at 500 g/ha [4, 17] of 100%, a pest or weed control at 125 g/ha ([5]; postemergence, 10 days, 0 to 100 scale (0 no effect, 100 complete control), read-out: Ryegrass, Italian plant response rating) of 60% and a pest or weed control at 500 g/ha [5, 18] of 60%. For the same compound, the pest or weed control at 125 g/ha [6] was 90%, the pest or weed control at 500 g/ha [6] was 100% and the pest or weed control at 125 g/ha [7] was 80%. For the same compound, the pest or weed control at 500 g/ha [7] was 90%, the pest or weed control at 250 g/ha [8] was 55% and the pest or weed control at 125 g/ha ([9]; postemergence, 10 days, 0 to 100 scale (0 no effect, 100 complete control), read-out: Ragweed plant response rating) was 50%. The pest or weed control at 500 g/ha [9, 19] was 50%, the pest or weed control at 125 g/ha ([10]; postemergence, 10 days, 0 to 100 scale (0 no effect, 100 complete control), read-out: Foxtail, Giant plant response rating) was 90% and the pest or weed control at 500 g/ha [10, 20] was 90%. It also gave a pest or weed control at 125 g/ha [11] of 20%, a pest or weed control at 500 g/ha [11] of 90% and a plant injury at 125 g/ha ([12]; 125 g ai/ha, postemergence, 10 days, 0 to 100 scale (0 no effect, 100 complete control), read-out: Corn plant response rating) of 70%. For the same compound, the Corn plant response rating (crop injury, 0 = no effect, 100 = complete kill) at 500 g/ha [12, 22] was 80%, the plant injury at 125 g/ha [13] was 0% and the plant injury at 500 g/ha [13] was 50%. The pest or weed control at 125 g/ha [14] was 50% and the pest or weed control at 500 g/ha [14] was 90%.
Work on `Cc1ccc(-n2cnc(C(C)(C)C)n2)cc1C(=O)N1C[C@H](C)Oc2c(Cl)cccc21` [Compound 76, [(2S)-8-Chloro-2,3-dihydro-2-methyl-4H-1,4-benzoxazin-4-yl][5-[3-(1,1-dimethylethyl)-1H-1,2,4-triazol-1-yl]-2-methylphenyl]methanone] yielded a pest or weed control at 125 g/ha [1, 15] of 50%, a pest or weed control at 500 g/ha [1, 15] of 80% and a pest or weed control at 250 g/ha [2] of 98%. It also gave a pest or weed control at 125 g/ha [3, 16] of 100%, a pest or weed control at 500 g/ha [3, 16] of 100% and a plant injury at 500 g/ha [4, 17] of 100%. The pest or weed control at 500 g/ha [5, 18] was 80%, the pest or weed control at 125 g/ha [6] was 100% and the pest or weed control at 500 g/ha [6] was 100%. It also gave a pest or weed control at 125 g/ha [7] of 100%, a pest or weed control at 500 g/ha [7] of 100% and a pest or weed control at 250 g/ha [8] of 20%. For the same compound, the pest or weed control at 500 g/ha [9, 19] was 60%, the pest or weed control at 125 g/ha [10, 20] was 90% and the pest or weed control at 500 g/ha [10, 20] was 90%. The pest or weed control at 125 g/ha [11] was 70%, the pest or weed control at 500 g/ha [11] was 100% and the Corn plant response rating (crop injury, 0 = no effect, 100 = complete kill) at 125 g/ha [12, 21] was 60%. For the same compound, the Corn plant response rating (crop injury, 0 = no effect, 100 = complete kill) at 500 g/ha [12, 22] was 60%, the plant injury at 125 g/ha [13] was 60% and the plant injury at 500 g/ha [13] was 90%.
